Results as given in patent publication US10351546B2, “Pyridin-3-yl acetic acid derivatives as inhibitors of human immunodeficiency virus replication” (priority 2015, dated 2019).
Where two headings read alike, the source gives them in different places.

Tested on: NL-RLuc virus
Assay: Inhibition of HIV replication (NL-RLuc luciferase reporter virus in MT-2 cells)
Type: cell-based
Details: Human immunodeficiency virus 1, MT2, 120 h
Description: Inhibition of HIV replication: A recombinant NL-RLuc proviral clone was constructed in which a section of the nef gene form NL4-3 was replaced with the Renilla Luciferase gene. This virus is fully infectious and can undergo multiple cycles of replication in cell culture. In addition, the luciferous reporter provides a simple and easy method for quantitating the extent of virus growth and consequently, the antiviral activity of test compounds. The plasmid pNLRLuc contains the proviral NL-Rluc DNA cloned into pUC18 at the PvuII site. The NL-RLuc virus was prepared by transfection of 293T cells with the plasmid pNLRLuc. Transfections were performed using the LipofectAMINE PLUS kit form Invitrogen (Carlsbad, Calif.) according to the manufacturer and the virus generated was titered in MT-2 cells. For susceptibility analyses, the titrated virus was used to infect MT-2 cells in the presence of compound, and after 5 days of incubation, cells were processed and quantitated for virus growth by the amount of expressed luciferase. Assay media was RPMI 1640 supplemented with 10% heat inactivated fetal bovine serum (FBS), 100 units/ml penicillin G/100 units/ml streptomycin, 10 mM HEPES buffer pH 7.55 and 2 mM L-glutamine. The results form at least 2 experiments were used to calculate the EC50 values. Luciferase was quantitated using the Dual Luciferase kit form Promega (Madison, Wis.). Susceptibility of viruses to compounds was determined by incubation in the presence of serial dilutions of the compound. The 50% effective concentration (EC50) was calculated by using the exponential form of the median effect equation where (Fa)=1/[1+(ED50/drug conc.)^m](Johnson V A, Byington R T. Infectivity Assay. In Techniques in HIV Research. ed. Aldovini A, Walker B D. 71-76. New York: Stockton Press. 1990). Activity equal to A refers to a compound having an EC50≤100 nM, while B and C denote compounds having an EC50 between 100 nM and 1 uM (B) or >1 uM (C).

Row | Structure (SMILES) | EC50 (read-out: Activity) [µM] | EC50 (read-out: EC50 μM) [µM]
1 | Cc1nc(C(=O)O)c(-c2ccc(OCCc3ccc(F)cc3)cc2)c(N2CCC(C)(C)CC2)c1[C@H](OC(C)(C)C)C(=O)O [Example 38, (S)-5-(tert-Butoxy(carboxy)methyl)-4-(4,4-dimethylpiperidin-1-yl)-3-(4-(4-fluorophenethoxy)phenyl)-6-methylpicolinic acid] | 0.1 to 1 | –
2 | COCCNC(=O)c1nc(C)c([C@H](OC(C)(C)C)C(=O)O)c(N2CCC(C)(C)CC2)c1-c1ccc(OCCc2ccc(F)cc2)cc1 [Example 39, (S)-2-(tert-Butoxy)-2-(4-(4,4-dimethylpiperidin-1-yl)-5-(4-(4-fluorophenethoxy)phenyl)-6-((2-methoxyethyl)carbamoyl)-2-methylpyridin-3-yl)acetic acid] | < 0.1 | –
3 | CNC(=O)c1nc(C)c([C@H](OC(C)(C)C)C(=O)O)c(N2CCC(C)(C)CC2)c1-c1ccc(OCCc2ccc(F)cc2)cc1 [Example 40, (S)-2-(tert-Butoxy)-2-(4-(4,4-dimethylpiperidin-1-yl)-5-(4-(4-fluorophenethoxy)phenyl)-2-methyl-6-(methylcarbamoyl)pyridin-3-yl)acetic acid] | < 0.1 | –
4 | Cc1nc(C(=O)N(C)CC2CCOCC2)c(-c2ccc(OCCc3ccc(F)cc3)cc2)c(N2CCC(C)(C)CC2)c1[C@H](OC(C)(C)C)C(=O)O [Example 41, (S)-2-(tert-Butoxy)-2-(4-(4,4-dimethylpiperidin-1-yl)-5-(4-(4-fluorophenethoxy)phenyl)-2-methyl-6-(methyl((tetrahydro-2H-pyran-4-yl)methyl)carbamoyl)pyridin-3-yl)acetic acid] | < 0.1 | –
5 | Cc1nc(C(=O)N(C)CC2CCCCC2)c(-c2ccc(OCCc3ccc(F)cc3)cc2)c(N2CCC(C)(C)CC2)c1[C@H](OC(C)(C)C)C(=O)O [Example 42, (S)-2-(tert-Butoxy)-2-(6-((cyclohexylmethyl)(methyl)carbamoyl)-4-(4,4-dimethylpiperidin-1-yl)-5-(4-(4-fluorophenethoxy)phenyl)-2-methylpyridin-3-yl)acetic acid] | < 0.1 | 0.004
6 | CCCCN(C)C(=O)c1nc(C)c([C@H](OC(C)(C)C)C(=O)O)c(N2CCC(C)(C)CC2)c1-c1ccc(OCCc2ccc(F)cc2)cc1 [Example 43, (S)-2-(tert-Butoxy)-2-(6-(butyl(methyl)carbamoyl)-4-(4,4-dimethylpiperidin-1-yl)-5-(4-(4-fluorophenethoxy)phenyl)-2-methylpyridin-3-yl)acetic acid] | < 0.1 | –
7 | Cc1nc(-c2nc3ccc(Cl)cc3[nH]2)c(-c2ccc(OCCc3ccc(F)cc3)cc2)c(N2CCC(C)(C)CC2)c1[C@H](OC(C)(C)C)C(=O)O [Example 44, (S)-2-(tert-Butoxy)-2-(6-(6-chloro-1H-benzo[d]imidazol-2-yl)-4-(4,4-dimethylpiperidin-1-yl)-5-(4-(4-fluorophenethoxy)phenyl)-2-methylpyridin-3-yl)acetic acid] | < 0.1 | –
8 | Cc1nc(-c2ncc(Cc3ccc(F)cc3)o2)c(-c2ccc(OCCc3ccc(F)cc3)cc2)c(N2CCC(C)(C)CC2)c1[C@H](OC(C)(C)C)C(=O)O [Example 45, (S)-2-(tert-Butoxy)-2-(4-(4,4-dimethylpiperidin-1-yl)-6-(5-(4-fluorobenzyl)oxazol-2-yl)-5-(4-(4-fluorophenethoxy)phenyl)-2-methylpyridin-3-yl)acetic acid] | < 0.1 | –
9 | Cc1nc(N)c(-c2ccc(OCCc3ccc(F)cc3)cc2)c(N2CCC(C)(C)CC2)c1[C@H](OC(C)(C)C)C(=O)O [Example 46, (S)-2-(6-Amino-4-(4,4-dimethylpiperidin-1-yl)-5-(4-(4-fluorophenethoxy)phenyl)-2-methylpyridin-3-yl)-2-(tert-butoxy)acetic acid] | < 0.1 | –
10 | CC(=O)Nc1nc(C)c([C@H](OC(C)(C)C)C(=O)O)c(N2CCC(C)(C)CC2)c1-c1ccc(OCCc2ccc(F)cc2)cc1 [Example 47, (S)-2-(6-Acetamido-4-(4,4-dimethylpiperidin-1-yl)-5-(4-(4-fluorophenethoxy)phenyl)-2-methylpyridin-3-yl)-2-(tert-butoxy)acetic acid] | < 0.1 | –
11 | Cc1nc(NS(C)(=O)=O)c(-c2ccc(OCCc3ccc(F)cc3)cc2)c(N2CCC(C)(C)CC2)c1[C@H](OC(C)(C)C)C(=O)O [Example 48, (S)-2-(tert-Butoxy)-2-(4-(4,4-dimethylpiperidin-1-yl)-5-(4-(4-fluorophenethoxy)phenyl)-2-methyl-6-(methylsulfonamido)pyridin-3-yl)acetic acid] | < 0.1 | –
12 | CNc1nc(C)c([C@H](OC(C)(C)C)C(=O)O)c(N2CCC(C)(C)CC2)c1-c1ccc(OCCc2ccc(F)cc2)cc1 [Example 49, (S)-2-(tert-Butoxy)-2-(4-(4,4-dimethylpiperidin-1-yl)-5-(4-(4-fluorophenethoxy)phenyl)-2-methyl-6-(methylamino)pyridin-3-yl)acetic acid] | < 0.1 | 0.001
13 | Cc1nc(N2CCCCC2)c(-c2ccc(OCCc3ccc(F)cc3)cc2)c(N2CCC(C)(C)CC2)c1[C@H](OC(C)(C)C)C(=O)O [Example 53, (S)-2-(tert-Butoxy)-2-(4-(4,4-dimethylpiperidin-1-yl)-5-(4-(4-fluorophenethoxy)phenyl)-2-methyl-6-(piperidin-1-yl)pyridin-3-yl)acetic acid] | < 0.1 | –
14 | Cc1nc(/C=C/COC(C)C)c(-c2ccc(OCCc3ccc(F)cc3)cc2)c(N2CCC(C)(C)CC2)c1[C@H](OC(C)(C)C)C(=O)O [Example 54, (S,E)-2-(tert-Butoxy)-2-(4-(4,4-dimethylpiperidin-1-yl)-5-(4-(4-fluorophenethoxy)phenyl)-6-(3-isopropoxyprop-1-en-1-yl)-2-methylpyridin-3-yl)acetic acid] | < 0.1 | –
15 | Cc1nc(/C=C\COC(C)C)c(-c2ccc(OCCc3ccc(F)cc3)cc2)c(N2CCC(C)(C)CC2)c1[C@H](OC(C)(C)C)C(=O)O [Example 55, (S,Z)-2-(tert-Butoxy)-2-(4-(4,4-dimethylpiperidin-1-yl)-5-(4-(4-fluorophenethoxy)phenyl)-6-(3-isopropoxyprop-1-en-1-yl)-2-methylpyridin-3-yl)acetic acid] | < 0.1 | –
16 | Cc1nc(CCCOC(C)C)c(-c2ccc(OCCc3ccc(F)cc3)cc2)c(N2CCC(C)(C)CC2)c1[C@H](OC(C)(C)C)C(=O)O [Example 56, (S)-2-(tert-Butoxy)-2-(4-(4,4-dimethylpiperidin-1-yl)-5-(4-(4-fluorophenethoxy)phenyl)-6-(3-isopropoxypropyl)-2-methylpyridin-3-yl)acetic acid] | < 0.1 | –
17 | CO/C=C/c1nc(C)c([C@H](OC(C)(C)C)C(=O)O)c(N2CCC(C)(C)CC2)c1-c1ccc(OCCc2ccc(F)cc2)cc1 [Example 57, (S,E)-2-(tert-Butoxy)-2-(4-(4,4-dimethylpiperidin-1-yl)-5-(4-(4-fluorophenethoxy)phenyl)-6-(2-methoxyvinyl)-2-methylpyridin-3-yl)acetic acid] | < 0.1 | 0.012
18 | COCCc1nc(C)c([C@H](OC(C)(C)C)C(=O)O)c(N2CCC(C)(C)CC2)c1-c1ccc(OCCc2ccc(F)cc2)cc1 [Example 58, (S)-2-(tert-butoxy)-2-(4-(4,4-dimethylpiperidin-1-yl)-5-(4-(4-fluorophenethoxy)phenyl)-6-(2-methoxyethyl)-2-methylpyridin-3-yl)acetic acid] | < 0.1 | –
19 | Cc1nc(CCCN(C)C)c(-c2ccc(OCCc3ccc(F)cc3)cc2)c(N2CCC(C)(C)CC2)c1[C@H](OC(C)(C)C)C(=O)O [Example 59, (S)-2-(tert-Butoxy)-2-(6-(3-(dimethylamino)propyl)-4-(4,4-dimethylpiperidin-1-yl)-5-(4-(4-fluorophenethoxy)phenyl)-2-methylpyridin-3-yl)acetic acid] | < 0.1 | –
20 | COc1ccc(Cc2nc(C)c([C@H](OC(C)(C)C)C(=O)O)c(N3CCC(C)(C)CC3)c2-c2ccc(OCCc3ccc(F)cc3)cc2)cc1 [Example 60, (S)-2-(tert-Butoxy)-2-(4-(4,4-dimethylpiperidin-1-yl)-5-(4-(4-fluorophenethoxy)phenyl)-6-(4-methoxybenzyl)-2-methylpyridin-3-yl)acetic acid] | < 0.1 | –
21 | C=Cc1nc(C)c([C@H](OC(C)(C)C)C(=O)O)c(N2CCC(C)(C)CC2)c1-c1ccc(OCCc2ccc(F)cc2)cc1 [Example 61, (S)-2-(tert-Butoxy)-2-(4-(4,4-dimethylpiperidin-1-yl)-5-(4-(4-fluorophenethoxy)phenyl)-2-methyl-6-vinylpyridin-3-yl)acetic acid] | < 0.1 | –
22 | Cc1ncc(Br)c(N2CCC(C)(C)CC2)c1[C@H](OC(C)(C)C)C(=O)O [Example 62, (S)-2-(5-Bromo-4-(4,4-dimethylpiperidin-1-yl)-2-methylpyridin-3-yl)-2-(tert-butoxy)acetic acid] | < 0.1 | –
23 | Cc1ncc(-c2ccc(OCCc3ccc(F)cc3)cc2)c(N2CCC(C)(C)CC2)c1[C@H](OC(C)(C)C)C(=O)O [Example 63, (S)-2-(tert-Butoxy)-2-(4-(4,4-dimethylpiperidin-1-yl)-5-(4-(4-fluorophenethoxy)phenyl)-2-methylpyridin-3-yl)acetic acid] | < 0.1 | –
